“And” between values parts separate entries of the source, which are not always exact repeats. Equal entries are not always repeated. “Also recorded” adds a separate entry of the source. Where two headings read alike, the source gives them in different places.
Key:
[1] = tested on: MOLP 8 human myeloma cells
Text: Female SCID mice were subcutaneously inoculated with MOLP 8 human myeloma cells. […] A control group of animals received phosphate buffered saline (PBS) using the same schedule and route of administration. Tumor growth was monitored by measuring tumor size and calculated with the formula length×width×height×1/2, determined on days 10, 14, 18 and 21.
FTV: Fractional tumor volume=mean tumor volume (test)/mean tumor volume (control)

[2] = Plasma level of BT062 (PK ELISA), repeated single dose; type: in vivo, human; settings: for effective Cmax (cycle 1) mean: 0-2 h post infusion; for effective Cmax (cycle 4) mean: day 64
Method: Theoretical Cmax was Calculated According to the Following Assumed Parameters: […]
The same evaluation was performed during treatment cycle 4. […] The amount of BT062 in the plasma is determined via a PK ELISA method described as follows:
The wells of a microtiter plate are first coated with anti-maytansinoid (anti-DM4) antibody overnight at 2-8° C. and after blocking with assay buffer (0.5% BSA/TBS) incubated on the next day with plasma samples. These are diluted beforehand at least 1:100 in assay buffer. […] After incubation, unbound material is removed by washing. […] Unbound secondary antibody is removed by another washing step. After this, TMB substrate solution is pipetted into all the wells. […] The color reaction is ended using a stop solution, which causes the color to change from blue to yellow. The final measurement is carried out with a photometer at a wavelength of 450 nm.
The relationship between concentration and optical density is evaluated using Magellan V6.6 software.

[3] = tested on: relapsed/refractory multiple myeloma; assay: Human trial, repeated multiple dose regimen (days 1, 8, 15)
Text: This includes, e.g., in alternating 2 and 3 day intervals, in 4 day intervals, in progressive increasing intervals such as on day 1, 3, 6, 10, 15. […] Such a treatment cycle, including a resting period, is also referred to herein as “full” or “complete” treatment cycle. A treatment free period describes the time during which no treatment is given. Thus, in the above example, the treatment free period would start at day 16. At the beginning of the resting period, no immunoconjugate is administered to the patient.
Generally, all toxicities of at least grade 3 are defined as DLT. Further study specific DLT criteria which can be employed are listed below: Nonhematological: • Alopecia, of any grade, is not considered a DLT • Grade 3-4 nausea and vomiting lasting longer than 3 days despite optimal antiemetic medication.^a • Grade 3-4 diarrhea lasting longer than 3 days despite optimal antidiarrheal medication.^a a. Optimal antidiarrheal and antiemetic treatment were determined by each investigator.
These DLTs may occur in a first or a subsequent treatment cycle. […] Preferably DLTs in the first cycle are considered.
(§1) Initially, the response to treatment was evaluated at day 1 of treatment cycles 1-3 by M-protein quantification using immunoelectrophoresis (IEP) and immunofixation electrophoresis (IFE) from serum and 24-hour urine collection. […] A general quantitative immunoglobulin assessment was done together with M-protein quantification.
(§2) Serum samples were used to perform FLC assays to examine multiple myeloma subjects with no detectable M-protein (nonsecretory/oligosecretory myeloma) and to allow for detection of early response to treatment. Therefore serum FLC assays were performed on day 1, 2, 3, and 8 of treatment cycle 1, on day 2, 3, 8 and 15 of cycle 4, as well as on day 1, 8 and 15 of all other treatment cycles. M-protein and FLC were be analyzed at the screening and at the close-out visit. Evaluations at day 1 of cycle 1 served as baseline values.

CD138+ MOLP-8 cells = assay: WST cell viability assay; type: cell-based
Method: CD138^+ MOLP-8 cells were seeded in flat bottom plates at 3000 cells/well. CD138^− BJAB control cells were seeded at 1000 cells/well. WST reagent (water-soluble tetrazolium salt, ROCHE) was added in order to measure cell viability according to the manufacturer's instruction (ROCHE). The reagent was incubated for 7.5 h on MOLP-8 cells and for 2 h on BJAB cells. The fraction of surviving cells was calculated based on the optical densities measured in a microplate reader using standard procedures.

[4] = tested on: relapsed or relapsed refractory multiple myeloma
Method: as §1, §2

Jurkat = assay: Sensitivity of cell lines towards BT062; type: cell-based; settings: T cell lymphoma
OPM-2 cells = assay: FACS analysis of binding; type: cell-based; settings: FIG. 6
Text: OPM-2 cells are plasma cell leukaemia cell lines showing highly expressing CD138. […] The cells were washed and CD138-bound antibody or conjugates were detected using a fluorescence-labelled secondary antibody in FACS analysis. The mean fluorescence measured in these experiments was plotted against the antibody concentration.

[5] = repeated single doses of 160 mg/m^2 (FIG. 28)

BT062
Regressions Complete ([1]; BT062 100 ug/kg): 0/6 | Regressions Partial ([1]; BT062 100 ug/kg): 0/6 | Result ([1]; BT062 100 ug/kg): Active | T/C (%) (DAY 17) ([1]; BT062 100 ug/kg): 35% | Tumor free survivors day 77 ([1]; BT062 100 ug/kg): 0/6 | Regressions Complete ([1]; BT062 200 ug/kg): 0/6 | Regressions Partial ([1]; BT062 200 ug/kg): 0/6 | Result ([1]; BT062 200 ug/kg): Active | T/C (%) (DAY 17) ([1]; BT062 200 ug/kg): 14% | Tumor free survivors day 77 ([1]; BT062 200 ug/kg): 0/6 | Regressions Complete ([1]; BT062 400 ug/kg): 1/6 | Regressions Partial ([1]; BT062 400 ug/kg): 4/6 | Result ([1]; BT062 400 ug/kg): highly active (A Log10 cell kill of higher than 2.8) | T/C (%) (DAY 17) ([1]; BT062 400 ug/kg): 9% | Tumor free survivors day 77 ([1]; BT062 400 ug/kg): 0/6 | percentage of theoretical Cmax (cycle 1) ([2]; 10 mg/m^2): 15% | effective Cmax (cycle 1) mean ([2]; 10 mg/m^2): 1.11 µg/mL and 1.1 µg/mL | percentage of theoretical Cmax (cycle 1) ([2]; 20 mg/m^2): 20% | percentage of theoretical Cmax (cycle 4) ([2]; 20 mg/m^2): 49% | effective Cmax (cycle 1) mean ([2]; 20 mg/m^2): 2.9 µg/mL | effective Cmax (cycle 4) mean ([2]; 20 mg/m^2): 7.06 µg/mL | percentage of theoretical Cmax (cycle 1) ([2]; 40 mg/m^2): 16% | percentage of theoretical Cmax (cycle 4) ([2]; 40 mg/m^2): 9% | effective Cmax (cycle 1) mean ([2]; 40 mg/m^2): 4.31 µg/mL | effective Cmax (cycle 4) mean ([2]; 40 mg/m^2): 2.51 µg/mL | percentage of theoretical Cmax (cycle 1) ([2]; 80 mg/m^2): 34% | percentage of theoretical Cmax (cycle 4) ([2]; 80 mg/m^2): 26% | effective Cmax (cycle 1) mean ([2]; 80 mg/m^2): 18.8 µg/mL | effective Cmax (cycle 4) mean ([2]; 80 mg/m^2): 14.2 µg/mL | percentage of theoretical Cmax (cycle 1) ([2]; 120 mg/m^2): 26.5% | effective Cmax (cycle 1) mean ([2]; 120 mg/m^2): 21.4 µg/mL | percentage of theoretical Cmax (cycle 1) ([2]; 160 mg/m^2): 74.5% | percentage of theoretical Cmax (cycle 4) ([2]; 160 mg/m^2): 71% | effective Cmax (cycle 1) mean ([2]; 160 mg/m^2): 81.2 µg/mL | effective Cmax (cycle 4) mean ([2]; 160 mg/m^2): 77.4 µg/mL | percentage of theoretical Cmax (cycle 1) ([2]; 200 mg/m^2): 60% | effective Cmax (cycle 1) mean ([2]; 200 mg/m^2): 82.0 µg/mL | DLTs ([3]; 40 mg/m^2 weekly, 14 administrations): no DLTs | response ([3]; 80 mg/m^2 weekly, Patient 12): partial response | progression free survival ([3]; 100 mg/m^2 weekly, patient 15 (FIG. 23)): more than 3 months | response ([3]; 120 mg/m^2 weekly, patient 19 (FIG. 24)): unconfirmed minor response | patients displaying DLT ([3]; 140 mg/m^2 weekly): 1 out of 6 | patients displaying DLTs ([3]; 160 mg/m^2 weekly): two out of the four and 2 out of 4 | response ([3]; 160 mg/m^2 weekly, patient 31): minor response | M-protein decrease ([3]; 160 mg/m^2 weekly, patient 31 (FIG. 25)): more than 25% | disease status ([3]; 3 × 50 mg/m^2, over six cycles (Patient 6)): no disease progression; also recorded: At least stable disease could be achieved | serum FLC level ([3]; 3 × 65 mg/m^2, after a single treatment cycle (FIG. 21)): A strong decrease of the serum FLC level | Tolerability ([3]; 3 × 80 mg/m^2, aggregate 240 mg/m^2 in three weeks): well tolerated | reduction of urine M protein ([3]; 3 × 120 mg/m^2, after 3rd, 7th and 10th cycle): 50% achieved after 3rd, 7th and 10th cycle | patients with progression free survival of at least 168 days ([3]; FIG. 18): four | patients with progression free survival of at least 300 days ([3]; FIG. 18): two | treatment without disease progression ([3]; Patient 8 (FIG. 21)): 168 days | patients (out of 32) with progression free survival of at least 3 months ([3]; all dose levels (FIG. 18)): 14 | DLT (palmar-plantar erythrodysaethesia syndrome), patients ([3]; at 420 (3 × 140 mg/m^2), out of six): toxicities (up to now), one | MAD ([3]; days 1, 8, 15): 160 mg/m^2 | DLTs ([3]; three 21 day cycles of 3×100 mg/m^2): No DLTs | DLTs ([3]; three 21 day cycles of 3×120 mg/m^2): No DLTs | cytotoxicity after preincubation with molar excess of unconjugated nBT062 (CD138+ MOLP-8 cells; FIG. 7 (D)): substantially blocked | cytotoxic activity (CD138+ MOLP-8 cells; five days, FIG. 7): very similar | treatment cycles of 21 days without disease progression ([4]; 20 mg/m^2, one patient): 10 cycles and Diseases progression after Cycle 10 cycles | response (urine M-protein criteria) ([4]; 20 mg/m^2, after 8th treatment): M-Protein criteria for Minor Response reached after 8th | Serum M-Protein ([4]; 40 mg/m^2, after 1st treatment): Serum M-Protein decreased after 1st treatment and stabilized | response (FLC criteria) ([4]; 160 mg/m^2, after 2nd, 3rd and 4th administration (FIG. 26)): partial response; also recorded: FLC criteria for Partial Response were reached very early | FLC levels reduced vs baseline ([4]; 160 mg/m^2, after 2nd, 3rd and 4th treatment): > 50% | FLC levels reduced vs baseline ([4]; 160 mg/m^2, during 1st cycle): ~40% | toxicity in the mucosa ([4]; 200 mg/m^2 dose group): DLTs | patients out of 32 with diminished disease progression (at least a fourth treatment cycle) ([4]; all dose levels): At least 12 | MTD ([4]; human, in vivo): 160 mg/m^2 | decrease of urine M-protein ([4]; repeated single dosages, e.g. 20, 40, 80 and 120 mg/m^2): more than 50% | MAD ([4]; repeated single dose): 200 mg/m^2 | toxicity towards non-cancer cells expressing CD138 ([4]; repeated single dose up to 120 mg/m^2): no dose limiting toxicity | eye toxicity ([4]; repeated single dose, not qualifying for DLT): Serious adverse events | M-protein levels reduced by [4, 5]: 25% | progression free survival [4, 5]: about 22 months | Tolerability ([4]; single dose every three weeks, 200 mg/m^2): DLTs | dose limiting toxicity (DLT) dose ([4]; single dose once in 21 day cycle): 200 mg/m^2 | IC50 (Jurkat): 39 nM | binding characteristics (OPM-2 cells): very similar binding characteristics
